Assay results published in US20220267352A1, “RAPAMYCIN ANALOGS AND USES THEREOF” (Anakuria Therapeutics, Inc., priority 2021, published 2022).

What was measured:
Format in all cases: cell-based
mTORC1 over mTORC2 = mTORC1 over mTORC2 selectivity by comparing pS6K1 and pAKT IC50; settings: by comparing pS6K1 and pAKT IC50, 90 min
Method: Assay Protocol: • 1. Seed MCF-7 cells in Corning 3701 plate and incubate for 20˜24 hour. 12,000˜16,000 cells will be seeded in 36 μL medium per well. • 2. Change the culture medium with fresh medium and incubate for another 2 hours. • 3. Add 12 μL (4×) compounds into the cell plate by HAMILTON. Final DMSO concentration is 0.5%. Incubate for 90 minutes. • 4. Aspirate 38 μL by HAMILTON, 10 μL rest per well. • 5. Add 10 μL 2× lysis buffer using HAMILTON; total volume in wells is 20 μL. Allow cells to shake for 30 min. Cover plate by plastic foil and store plate at −80° C. up to analysis. • 6. Thaw cell lysate at RT and transfer 10 μL lysate to assay plate (Optiplate-384). • 7. Add 5 μL acceptor beads into assay plate and incubation for 2 hours • 8. Add 5 μL donor beads and incubation for 2 hours • 9. Count the plate by EnSpire Multimode Plate Reader […]
Compounds that are not selective by comparing pS6K1 and pAKT IC50 by kinase assays are indicated by “NO” in the “mTORC1 selective @ 90 min” column of Table 4. […] Compounds that are not selective at the 24 hrs mark are indicated by “NO” in the “mTORC1 selective @ 24 hrs” column of Table 4. “N/A” stands for “not assayed” and “N/C” stands for “not calculated”.

[1] = tested on: p-Akt 1/2/3 (Ser473) in MCF-7 cells; experiment: AlphaLISA Ultra pAKT assay; settings: Homo sapiens, 1.5 h; MCF7 cells, 90 min
In short: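 MCF-7 cells (16,000˜20,000 per well in 36 μL medium) were seeded in Corning 3701 plates for 20˜24 hour, refreshed with new medium for 90 minutes, then given 12 μL of 4× compound (0.5% final DMSO). Cells were lysed with 2× lysis buffer, and lysate was analyzed by AlphaLISA Ultra pAKT using acceptor and donor beads, read on an EnSpire reader.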

[2] = tested on: p-p70 S6 Kinase (Thr389) in MCF-7 cells; experiment: AlphaLISA Ultra pS6K1 assay; settings: Homo sapiens, 1.5 h; MCF7 cells, 90 min
In short: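 Phospho-S6K1 (Thr389) quantified by AlphaLISA Ultra read-out (2 h acceptor, then 2 h donor beads) in lysates of MCF-7 cells. Cells were plated 20–24 h before, refed 2 h, exposed to compounds for 90 min at 0.5% final DMSO, and lysates stored at −80 °C.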

SMILES | mTORC1 selective @ 90 min (mTORC1 over mTORC2) | IC50 [1] [nM] | IC50 [2] [nM]
CO[C@@H]1/C(C)=C/[C@@H](C)C(=O)C[C@@H]([C@H](C)C[C@@H]2CC[C@@H](O)[C@H](OC)C2)OC(=O)[C@@H]2CCCCN2C(=O)C(=O)[C@]2(O)O[C@@H](CC[C@H]2C)C[C@@H](OCCOC2COC2)/C(C)=C/C=C/C=C/[C@@H](C)C[C@@H](C)C(=O)[C@@H]1OC [I-96] | No | ≥ 1000 | ≥ 1000
CO[C@@H]1/C(C)=C/[C@@H](C)C(=O)C[C@@H]([C@H](C)C[C@@H]2CC[C@@H](OP(C)(C)=O)[C@H](OC)C2)OC(=O)[C@@H]2CCCCN2C(=O)C(=O)[C@]2(O)O[C@@H](CC[C@H]2C)CC(OCCOC2COC2)/C(C)=C/C=C/C=C/[C@@H](C)C[C@@H](C)C(=O)[C@@H]1OC (stereo partly drawn) [I-75, (1R,2R,4S)-4-((2R)-2-((3S,6R,7E,9R,10R,12R,14S,15E,17E,19E,23S,26R,27R,34aS)-27-hydroxy-9,10-dimethoxy-6,8,12,14,20,26-hexamethyl-21-(2-(oxetan-3-yloxy)ethoxy)-1,5,11,28,29-pentaoxo-1,4,5,6,9,10,11,12,13,14,21,22,23,24,25,26,27,28,29,31,32,33,34,34a-tetracosahydro-3H-23,27-epoxypyrido[2,1-c][1]oxa[4]azacyclohentriacontin-3-yl)propyl)-2-methoxycyclohexyl dimethylphosphinate] | Yes | ≥ 1000 | ≥ 1000
CO[C@@H]1/C(C)=C/[C@@H](C)C(=O)C[C@@H]([C@H](C)C[C@@H]2CC[C@@H](OC(F)F)[C@H](OC)C2)OC(=O)[C@@H]2CCCCN2C(=O)C(=O)[C@]2(O)O[C@@H](CC[C@H]2C)CC(OCC2COCCO2)/C(C)=C/C=C/C=C/[C@@H](C)C[C@@H](C)C(=O)[C@@H]1OC (stereo partly drawn) [I-8, (25E,27E,29E,30E,33R,34S,35R,36R,38S,40S,43S,45R,46R,56R)-43-[(1R)-2-[(1S,3R,4R)-4-(difluoromethoxy)-3-methoxy-cyclohexyl]-1-methyl-ethyl]-42-(1,4-dioxan-2-ylmethoxy)-56-hydroxy-45,46-dimethoxy-33,34,35,36,47,48-hexamethyl-66,67-dioxa-57-azatricyclohexatriaconta-25,27,29(47),30(48)-tetraene-49,50,51,52,53-pentone] | Yes | ≥ 1000 | 10 to 100
CO[C@@H]1C[C@H](C[C@@H](C)[C@@H]2CC(=O)[C@H](C)/C=C(\C)[C@@H](O)[C@@H](OC)C(=O)[C@H](C)C[C@H](C)/C=C/C=C/C=C(\C)C(OCCOC3COC3)C[C@@H]3CC[C@@H](C)[C@@](O)(O3)C(=O)C(=O)N3CCCC[C@H]3C(=O)O2)CC[C@H]1OP(C)(C)=O (stereo partly drawn) [I-89, (1R,9S,12S,15R,16E,18R,19R,21R,23S,24E,26E,28E,32S,35R)-12-[(1R)-2-[(1S,3R,4R)-4-dimethylphosphoryloxy-3-methoxy-cyclohexyl]-1-methyl-ethyl]-1,18-dihydroxy-19-methoxy-15,17,21,23,29,35-hexamethyl-30-[2-(oxetan-3-yloxy)ethoxy]-11,36-dioxa-4-azatricyclo[30.3.1.04,9]hexatriaconta-16,24,26,28-tetraene-2,3,10,14,20-pentone] | Yes | ≥ 1000 | 1 to 10
COCCOCCO[C@@H]1C[C@@H]2CC[C@@H](C)[C@@](O)(O2)C(=O)C(=O)N2CCCC[C@H]2C(=O)O[C@H]([C@H](C)C[C@@H]2CC[C@@H](OP(C)(C)=O)[C@H](OC)C2)CC(=O)[C@H](C)/C=C(\C)[C@@H](OC)[C@@H](OC)C(=O)[C@H](C)C[C@H](C)/C=C/C=C/C=C/1C [I-33, (25E,27E,29E,30E,36R,37S,38R,39R,41S,43S,45R,46S,47R,48R,57R)-46-[(1R)-2-[(1S,3R,4R)-4-dimethylphosphoryloxy-3-methoxy-cyclohexyl]-1-methyl-ethyl]-57-hydroxy-47,48-dimethoxy-45-[2-(2-methoxyethoxy)ethoxy]-36,37,38,39,49,50-hexamethyl-66,67-dioxa-58-azatricyclohexatriaconta-25,27,29(49),30(50)-tetraene-51,52,53,54,55-pentone] | Yes | ≥ 1000 | 1 to 10
CO[C@@H]1C[C@H](C[C@@H](C)[C@@H]2CC(=O)[C@H](C)/C=C(\C)[C@@H](O)[C@@H](OC)C(=O)[C@H](C)C[C@H](C)/C=C/C=C/C=C(\C)[C@H](OCCOC3COC3)C[C@@H]3CC[C@@H](C)[C@@](O)(O3)C(=O)C(=O)N3CCCC[C@H]3C(=O)O2)CC[C@H]1OP(C)(C)=O [I-77, (1R,9S,12S,15R,16E,18R,19R,21R,23S,24E,26E,28E,30R,32S,35R)-12-[(1R)-2-[(1S,3R,4R)-4-dimethylphosphoryloxy-3-methoxy-cyclohexyl]-1-methyl-ethyl]-1,18-dihydroxy-19-methoxy-15,17,21,23,29,35-hexamethyl-30-[2-(oxetan-3-yloxy)ethoxy]-11,36-dioxa-4-azatricyclo[30.3.1.0^4,9]hexatriaconta-16,24,26,28-tetraene-2,3,10,14,20-pentone] | Yes | ≥ 1000 | 10 to 100
CO[C@@H]1C[C@H](C[C@@H](C)[C@@H]2CC(=O)[C@H](C)/C=C(\C)[C@@H](O)[C@@H](OC)C(=O)[C@H](C)C[C@H](C)/C=C/C=C/C=C(\C)C(OCC3COCCO3)C[C@@H]3CC[C@@H](C)[C@@](O)(O3)C(=O)C(=O)N3CCCC[C@H]3C(=O)O2)CC[C@H]1OCCCN1CCOCC1 (stereo partly drawn) [I-12, (28E,30E,32E,33E,39R,40S,41R,42R,44S,46S,49S,51R,52R,61R)-48-(1,4-dioxan-2-ylmethoxy)-51,61-dihydroxy-52-methoxy-49-[(1R)-2-[(1S,3R,4R)-3-methoxy-4-(3-morpholinopropoxy)cyclohexyl]-1-methyl-ethyl]-39,40,41,42,53,54-hexamethyl-74,75-dioxa-63-azatricyclohexatriaconta-28,30,32(53),33(54)-tetraene-55,56,57,58,59-pentone] | Yes | ≥ 1000 | < 1
COCCO[C@@H]1CC[C@@H](C[C@@H](C)[C@@H]2CC(=O)[C@H](C)/C=C(\C)[C@@H](O)[C@@H](OC)C(=O)[C@H](C)C[C@H](C)/C=C/C=C/C=C(\C)C(OC[C@H]3COCCO3)C[C@@H]3CC[C@@H](C)[C@@](O)(O3)C(=O)C(=O)N3CCCC[C@H]3C(=O)O2)C[C@H]1OC (stereo partly drawn) [I-79, (1R,9S,12S,15R,16E,18R,19R,21R,23S,24E,26E,28E,32S,35R)-30-[[(2R)-1,4-dioxan-2-yl]methoxy]-1,18-dihydroxy-19-methoxy-12-[(1R)-2-[(1S,3R,4R)-3-methoxy-4-(2-methoxyethoxy)cyclohexyl]-1-methyl-ethyl]-15,17,21,23,29,35-hexamethyl-11,36-dioxa-4-azatricyclo[30.3.1.0^4,9]hexatriaconta-16,24,26,28-tetraene-2,3,10,14,20-pentone] | Yes | ≥ 1000 | 1 to 10
CO[C@@H]1/C(C)=C/[C@@H](C)C(=O)C[C@@H]([C@H](C)C[C@@H]2CC[C@@H](OP(C)(C)=O)[C@H](OC)C2)OC(=O)[C@@H]2CCCCN2C(=O)C(=O)[C@]2(O)O[C@@H](CC[C@H]2C)C[C@H](OCC2COCCO2)/C(C)=C/C=C/C=C/[C@@H](C)C[C@@H](C)C(=O)[C@@H]1OC (stereo partly drawn) [I-25, (27E,29E,31E,32E,35R,36S,37R,38R,40S,42S,44S,45S,47R,48R,57R)-45-[(1R)-2-[(1S,3R,4R)-4-dimethylphosphoryloxy-3-methoxy-cyclohexyl]-1-methyl-ethyl]-44-(1,4-dioxan-2-ylmethoxy)-57-hydroxy-47,48-dimethoxy-35,36,37,38,49,50-hexamethyl-68,69-dioxa-58-azatricyclohexatriaconta-27,29,31(49),32(50)-tetraene-51,52,53,54,55-pentone] | Yes | ≥ 1000 | 10 to 100
CO[C@@H]1/C(C)=C/[C@@H](C)C(=O)C[C@@H]([C@H](C)C[C@@H]2CC[C@@H](OCCO)[C@H](OC)C2)OC(=O)[C@@H]2CCCCN2C(=O)C(=O)[C@]2(O)O[C@@H](CC[C@H]2C)CC(OCCOCCOC2COC2)/C(C)=C/C=C/C=C/[C@@H](C)C[C@@H](C)C(=O)[C@@H]1OC (stereo partly drawn) [I-80, (1R,9S,12S,15R,16E,18R,19R,21R,23S,24E,26E,28E,32S,35R)-1-hydroxy-12-[(1R)-2-[(1S,3R,4R)-4-(2-hydroxyethoxy)-3-methoxy-cyclohexyl]-1-methyl-ethyl]-18,19-dimethoxy-15,17,21,23,29,35-hexamethyl-30-[2-[2-(oxetan-3-yloxy)ethoxy]ethoxy]-11,36-dioxa-4-azatricyclo[30.3.1.0^4,9]hexatriaconta-16,24,26,28-tetraene-2,3,10,14,20-pentone] | Yes | ≥ 1000 | 10 to 100
